# Assays:
# [1] = tested on: control sera (pooled serum of ten healthy LUMC hospital workers; commercial negative donor pooled serum from the Dutch bloodbank); format: binding, human; set-up: Binding of Control serum LUMC to linear peptides / Binding of Control serum Blood-bank to linear peptides / Binding of Control serum LUMC to looped peptides / Binding of Control Serum Blood-Bank to Looped peptides / Binding of Control serum LUMC to linear peptides of the protein M of SARS-CoV Urbani / Binding of Control serum Blood-bank to linear peptides of the protein M of SARS-CoV Urbani / Binding of Control serum LUMC to looped peptides of the protein M of SARS-CoV Urbani / Binding of Control Serum Blood-Bank to Looped peptides of the protein M of SARS-CoV Urbani: unit not given here
# [2] = tested on: rabbit serum obtained by immunizing a rabbit with the SARS-CoV strain Frankfurt 1; format: binding; set-up: Binding of a rabbit serum to linear peptides / Binding of a rabbit serum to looped peptides / Rabbit serum linear peptides / Rabbit serum looped peptides / Binding of a rabbit serum to linear peptides of protein N of SARS-CoV Urbani (Rabbit serum linear peptides) / Binding of a rabbit serum to looped/cyclic peptides of protein N of SARS-CoV Urbani (Rabbit serum looped peptides): unit not given here
# [3] = tested on: antibodies in sera from SARS patients (sera 1a, 1b, 2, 6, 37, 62, London, SARS-yellow, SARS-green); format: binding, human; set-up: Binding of serum 6 to linear peptides of protein X1 of SARS-CoV Urbani / Binding of serum 37 to linear peptides of protein X1 of SARS-CoV Urbani / Binding of serum 6 to looped/cyclic peptide (PEPSCAN-ELISA) / Binding of serum 37 to looped/cyclic peptide (PEPSCAN-ELISA) / Binding of serum 37 to looped/cyclic peptides of protein X1 of SARS-CoV Urbani / Binding of serum 6 to linear peptides of protein X2 / Binding of serum 37 to linear peptides of protein X2 / Binding of serum 37 to looped/cyclic peptides of protein X2 of SARS-CoV Urbani / Binding of serum 6 to linear peptides of protein M of SARS-CoV Urbani / Binding of serum 37 to linear peptides of protein M of SARS-CoV Urbani / Binding of serum 6 to looped/cyclic peptides of protein M of SARS-CoV Urbani / Binding of serum 37 to looped/cyclic peptides of protein M of SARS-CoV Urbani / Binding of serum 6 to linear peptides of protein X3 of SARS-CoV Urbani / Binding of serum 37 to linear peptides of protein X3 of SARS-CoV Urbani / Binding of serum 37 to looped/cyclic peptides of protein X3 of SARS-CoV Urbani / Binding of serum 6 to linear peptides of protein X4 of SARS-CoV Urbani / Binding of serum 37 to linear peptides of protein X4 of SARS-CoV Urbani / Binding of serum 37 to looped/cyclic peptides of protein X4 of SARS-CoV Urbani / Binding of serum 6 to linear peptides of protein X5 of SARS-CoV Urbani / Binding of serum 37 to linear peptides of protein X5 of SARS-CoV Urbani / Binding of serum 37 to looped/cyclic peptides of protein X5 of SARS-CoV Urbani / Binding of serum 6 to linear peptides of protein N of SARS-CoV Urbani / Binding of serum 37 to linear peptides of protein N of SARS-CoV Urbani / Binding of serum 6 to linear peptide (PEPSCAN-ELISA) / Binding of serum 1a to looped/cyclic peptides of protein N of SARS-CoV Urbani / Binding of serum 1b to looped/cyclic peptides of protein N of SARS-CoV Urbani / Binding of serum 2 to looped/cyclic peptides of protein N of SARS-CoV Urbani / Binding of serum 6 to looped/cyclic peptides of protein N of SARS-CoV Urbani / Binding of serum 37 to looped/cyclic peptides of protein N of SARS-CoV Urbani / Binding of serum 62 to looped/cyclic peptides of protein N of SARS-CoV Urbani / Binding of serum London to looped/cyclic peptides of protein N of SARS-CoV Urbani / Binding of serum SARS-green to looped/cyclic peptides of protein N of SARS-CoV Urbani: unit not given here
Sequence,Binding of Control Serum Blood-Bank to Looped peptides of the protein M of SARS-CoV Urbani [1],Binding of Control serum Blood-bank to linear peptides of the protein M of SARS-CoV Urbani [1],Binding of Control serum LUMC to linear peptides of the protein M of SARS-CoV Urbani [1],Binding of Control serum LUMC to looped peptides of the protein M of SARS-CoV Urbani [1],Rabbit serum linear peptides [2],Rabbit serum looped peptides [2],Binding of serum 1a to linear peptides of protein M of SARS-CoV Urbani [3],Binding of serum 1a to looped/cyclic peptides of protein M of SARS-CoV Urbani [3],Binding of serum 1b to linear peptides of protein M of SARS-CoV Urbani [3],Binding of serum 1b to looped/cyclic peptides of protein M of SARS-CoV Urbani [3],Binding of serum 2 to linear peptides of protein M of SARS-CoV Urbani [3],Binding of serum 2 to looped/cyclic peptides of protein M of SARS-CoV Urbani [3],Binding of serum 6 to linear peptides of protein M of SARS-CoV Urbani [3],Binding of serum 6 to looped/cyclic peptides of protein M of SARS-CoV Urbani [3],Binding of serum 37 to linear peptides of protein M of SARS-CoV Urbani [3],Binding of serum 37 to looped/cyclic peptides of protein M of SARS-CoV Urbani [3],Binding of Control Serum Blood-Bank to Looped peptides [1],Binding of Control serum Blood-bank to linear peptides [1],Binding of Control serum LUMC to linear peptides [1],Binding of Control serum LUMC to looped peptides [1],also measured
RIGNYKLNTDHAGSN,0.8,0.9,0.6,0.8,0.1,0.2,0.7,0.6,0.5,0.5,0.6,0.5,0.3,0.7,0.5,0.6,,,,,Binding of serum 62 to linear peptides of protein M of SARS-CoV Urbani [3]: 0.6; Binding of serum 62 to looped/cyclic peptides of protein M of SARS-CoV Urbani [3]: 0.6; Binding of serum London to linear peptides of protein M of SARS-CoV Urbani [3]: 0.6; Binding of serum London to looped/cyclic peptides of protein M of SARS-CoV Urbani [3]: 0.4; Binding of serum SARS-green to linear peptides of protein M of SARS-CoV Urbani [3]: 0.6; Binding of serum SARS-green to looped/cyclic peptides of protein M of SARS-CoV Urbani [3]: 0.2; Binding of serum SARS-yellow to linear peptides of protein M of SARS-CoV Urbani [3]: 0.1; Binding of serum SARS-yellow to looped/cyclic peptides of protein M of SARS-CoV Urbani [3]: 0.6
LPKEITVATSRTLSY,0.6,0.8,0.7,0.6,0.2,0.2,0.7,0.6,0.5,0.4,0.6,0.6,0.4,0.6,0.4,0.6,,,,,Binding of serum 62 to linear peptides of protein M of SARS-CoV Urbani [3]: 0.5; Binding of serum 62 to looped/cyclic peptides of protein M of SARS-CoV Urbani [3]: 0.5; Binding of serum London to linear peptides of protein M of SARS-CoV Urbani [3]: 0.3; Binding of serum London to looped/cyclic peptides of protein M of SARS-CoV Urbani [3]: 0.2; Binding of serum SARS-green to linear peptides of protein M of SARS-CoV Urbani [3]: 0.4; Binding of serum SARS-green to looped/cyclic peptides of protein M of SARS-CoV Urbani [3]: 0.3; Binding of serum SARS-yellow to linear peptides of protein M of SARS-CoV Urbani [3]: 0.2; Binding of serum SARS-yellow to looped/cyclic peptides of protein M of SARS-CoV Urbani [3]: 0.5
QQELYSPLFLIVAAL,,,,,0.4,0.4,,,,,,,,,,,0.6,0.5,0.4,0.6,Binding of serum 1a to linear peptides of protein X4 of SARS-CoV Urbani [3]: 0.7; Binding of serum 1a to looped/cyclic peptides of protein X4 of SARS-CoV Urbani [3]: 0.7; Binding of serum 1b to linear peptides of protein X4 of SARS-CoV Urbani [3]: 0.5; Binding of serum 1b to looped/cyclic peptides of protein X4 of SARS-CoV Urbani [3]: 0.4; Binding of serum 2 to linear peptides of protein X4 of SARS-CoV Urbani [3]: 0.5; Binding of serum 2 to looped/cyclic peptides of protein X4 of SARS-CoV Urbani [3]: 0.6; Binding of serum 6 to linear peptides of protein X4 of SARS-CoV Urbani [3]: 0.7; Binding of serum 6 to looped/cyclic peptides of protein X4 of SARS-CoV Urbani [3]: 0.4; Binding of serum 37 to linear peptides of protein X4 of SARS-CoV Urbani [3]: 0.7; Binding of serum 37 to looped/cyclic peptides of protein X4 of SARS-CoV Urbani [3]: 0.6; Binding of serum 62 to linear peptides of protein X4 of SARS-CoV Urbani [3]: 0.6; Binding of serum 62 to looped/cyclic peptides of protein X4 of SARS-CoV Urbani [3]: 0.6; Binding of serum London to linear peptides of protein X4 of SARS-CoV Urbani [3]: 0.8; Binding of serum London to looped/cyclic peptides of protein X4 of SARS-CoV Urbani [3]: 0.3; Binding of serum SARS-green to linear peptides of protein X4 of SARS-CoV Urbani [3]: 0.6; Binding of serum SARS-green to looped/cyclic peptides of protein X4 of SARS-CoV Urbani [3]: 0.5; Binding of serum SARS-yellow to linear peptides of protein X4 of SARS-CoV Urbani [3]: 0.6; Binding of serum SARS-yellow to looped/cyclic peptides of protein X4 of SARS-CoV Urbani [3]: 0.7
STPKLKEDYQIGGYS,,,,,,,,,,,,,,,,,0.2,0.7,0.7,0.3,Binding of a rabbit serum to linear peptides [2]: 0.1; Binding of a rabbit serum to looped peptides [2]: 0.3
NYFVCWHTHNYDYCI,,,,,,,,,,,,,,,,,0.6,0.6,0.6,0.6,Binding of a rabbit serum to linear peptides [2]: 0.1; Binding of a rabbit serum to looped peptides [2]: 0.5
VTINCQDPAGGALIA,,,,,0.5,0.0,,,,,,,,,,,0.5,0.8,0.6,0.5,

# From US20070128217A1 (priority 2003, published 2007)
